Patent US20220265619A1, “COMBINATION TREATMENT OF LIVER DISEASES USING FXR AGONISTS” (Novartis AG, priority 2019, published 2022)
Entries after “also recorded” stand apart in the source; their conditions may differ. Each block holds one compound with its values, some of them ahead of it.

How the values were obtained:
[1] = tested on: human hepatocytes; assay: LDL uptake by in vitro human hepatocytes treated with FXR agonists; assay type: cell-based
Text: To mitigate the increase in peripheric LDL, we hypothesize that treating the subjects in the evening (from about 6 pm to about […], e.g. from about 8 pm to about 11 pm, preferably around 9 pm) would be reduce the impact of the drug on LDL. […] In addition, during night time, the hepatocytes rely less on cholesterol coming from the food intake (LDL and others) since the body is then fasting but more on the intrahepatic production of cholesterol via HMGCOa reductase; the activity of this enzyme is the highest during the night. Indeed, in human, whilst the Cyp7A1 activity peak at 1 and 9 pm, intracellular cholesterol levels in hepatocytes are the highest during the night (between midnight and 4 AM).

[2] = FLIGHT-FXR (NCT02855164) Part C interim analysis, tropifexor in fibrotic NASH; assay type: in vivo, human; conditions: for ALT, LS mean absolute change (SE) from baseline to Week 12: placebo −8.9 (4.19); for GGT, LS mean absolute change (SE) from baseline to Week 12: placebo −2.5 (3.55); for Body weight, LS mean absolute change (SE) from baseline to Week 12: placebo −1.14 (0.36)
[3] = Drug-drug interaction study of tropifexor and licogliflozin in healthy but overweight to obese subjects; assay type: in vivo, human
Description: Sixteen subjects with a BMI of 25 to 35 kg/m2 were enrolled. […] Standard safety assessments were performed, with adverse event monitoring. Steady state PK parameters from Period 1 or 2 (single agent PK) were compared with that from Period 3 (combination PK) to assess the effect of potential drug interaction.

[4] = Tropifexor in NASH patients, Parts A and B of study CLJN452A2202
[5] = NASH patients; cited from earlier work
[6] = Licogliflozin 2 week study in healthy subjects and patients with T2DM; assay type: in vivo, human
Description: (§1) i.e., (2S,3R,4R,5S,6R)-2-(3-((2,3-dihydrobenzo[b][1,4]dioxin-6-yl)methyl)-4-ethylphenyl)-6-(hydroxymethyl)tetrahydro-2H-pyran-3,4,5-triol. […] Licogliflozin at 150 mg daily dose results in a significant weight loss in obese patients (˜6%) after 12 week treatment.

[7] = Licogliflozin 150 mg daily, 12 week treatment in obese patients / normoglycemic and dysglycemic subjects; assay type: in vivo, human
Description: as §1

[8] = Phase 2 dose range finding study of licogliflozin in obese patients (CLIK066B2201); assay type: in vivo, human; conditions: obese patients (placebo 19.2%)
Description: A dose of 30 mg QD is expected to achieve approximately 70% of maximum observed efficacy (using weight loss as a downstream marker for efficacy; CLIK066B2201). Licogliflozin is currently being tested as 30 mg and 150 mg QD monotherapy in NASH (CLIK066X2204). […] To minimize the risk of GI adverse effects of the SGLT1 inhibition in the gut such as diarrhea, licogliflozin will be administered in the evening.

[9] = Placebo-controlled, randomized Phase 2a study of licogliflozin in NASH patients, interim analysis (NCT03205150, CLIK066X2204); assay type: in vivo, human; conditions: for patients achieving at least 5% absolute reduction in liver fat: 12 weeks (placebo 18.8%); for proportion of patients with at least a 30% relative reduction in liver fat content: 12 weeks (placebo 25%); for patients reporting diarrhea (adverse event): 12 weeks (placebo 38.9%)
Description: METHOD: Patients with histologically confirmed NASH (F1-F3) or phenotypic NASH (BMI≥27 kg/m^2 in non-Asians or 23 kg/m^2 in Asians, ALT≥50 (males) or 35 (females) and type 2 diabetes (T2DM)) received daily oral licogliflozin at 150 mg, 30 mg or placebo in a 2:2:1 ratio for 12 weeks (NCT03205150). The primary endpoint is the effect on ALT level after 12 weeks of treatment. Secondary endpoints include improvement in body weight, liver fat content and AST, amongst others. The study size is 110 of which 77 have completed (placebo (n=18); licogliflozin 30 mg (n=25) and licogliflozin 150 mg (n=34)) and are included in the interim analysis.

[10] = Dose finding study of licogliflozin in Japanese patients with obesity disease; assay type: in vivo, human; conditions: for placebo-subtracted percentage change in body weight from baseline at Week 12: Japanese patients with obesity disease
Description: This study was a randomized, double-blind, placebo controlled, dose finding study to evaluate the effect of licogliflozin (2.5, 10, 25 and 50 mg qd) in 126 Japanese patients with obesity disease. The primary objective was to examine the dose-response relationship of licogliflozin treatment in body weight reduction relative to placebo at 12 weeks. The secondary objectives included assessment of responder rates, change in parameters related to complications, visceral and subcutaneous fat area, and safety through 12 weeks of treatment.

[11] = 200 μg once daily, n = 46, P < 0.001
[12] = tropifexor 140 μg in the presence of licogliflozin 50 mg vs alone
[13] = 10 to 90 μg daily for 12 weeks, NASH patients
[14] = all doses (10, 30, 60 and 90 μg), 12 weeks
[15] = licogliflozin 50 mg in the presence of tropifexor 140 μg vs alone

Compound: O=C(O)c1ccnc(N2CC(O)(c3ccc(OCc4c(-c5c(Cl)cccc5Cl)noc4C4CC4)cc3Cl)C2)c1 [cilofexor]
LDL uptake by hepatocytes ([1]; FIG. 5): reduce the LDL uptake by hepatocytes in a dose dependent manner; also recorded: decreased LDL uptake

Compound: O=C(O)c1cc(F)c2nc(N3C4CC[C@H]3CC(OCc3c(-c5ccccc5OC(F)(F)F)noc3C3CC3)C4)sc2c1 (stereo partly drawn) [tropifexor, 2-[(1R,3r,5S)-3-({5-cyclopropyl-3-[2-(trifluoromethoxy)phenyl]-1,2-oxazol-4-yl}methoxy)-8-azabicyclo[3.2.1]octan-8-yl]-4-fluoro-1,3-benzothiazole-6-carboxylic acid]
low density lipoprotein-cholesterol (LDL-C) ([2]; 140 μg and 200 μg): dose-related increase
frequency of serious adverse events ([2]; 140 μg and 200 μg vs placebo): low and comparable across groups
ALT, LS mean absolute change (SE) from baseline to Week 12 ([2]; 140 μg once daily, n = 41, P = 0.058): −20.1 (4.57) U/L
GGT, LS mean absolute change (SE) from baseline to Week 12 ([2]; 140 μg once daily, n = 44, P < 0.001): −39.2 (3.70) U/L
Body weight, LS mean absolute change (SE) from baseline to Week 12 ([2]; 140 μg once daily, n = 46, P = 0.010): −2.46 (0.38) kg
treatment discontinuation rate due to pruritus ([2]; 140 μg, n=1 (placebo 0%)): 2%
pre-specified endpoints at week 12 ([2]; 200 μg once daily): met
ALT, LS mean absolute change (SE) from baseline to Week 12 ([2]; 200 μg once daily, n = 39, P = 0.013): −23.6 (4.48) U/L
Body weight, LS mean absolute change (SE) from baseline to Week 12 [2, 11]: −3.20 (0.37) kg
GGT, LS mean absolute change (SE) from baseline to Week 12 [2, 11]: −40.9 (3.62) U/L
treatment discontinuation rate due to pruritus ([2]; 200 μg, n=3 (placebo 0%)): 6%
patients with pruritus whose events had mild (Grade 1) severity ([2]; both Tropifexor groups (140 μg, 200 μg)): > 60%
ALT, HFF, and body weight after 12 weeks ([2]; higher doses (140 μg, 200 μg)): robust and dose-dependent decreases
safety and tolerability after 12 weeks ([2]; higher doses (140 μg, 200 μg)): good safety and tolerability
decrease of mean peak plasma concentration (Cmax,ss) [3, 12]: 15%
decrease of total exposure (AUCtau,ss) [3, 12]: 12%
biologic activity (GGT) [4, 13]: clear dose response
target engagement (FGF19) [4, 13]: clear dose response
ALT compared to placebo [4, 14]: reduced across all tropifexor doses
hepatic fat fraction compared to placebo [4, 14]: reduced across all tropifexor doses
tolerability ([4]; up to 90 μg daily): generally well tolerated up to 90 μg daily without safety signals

LDL uptake by hepatocytes ([1]; FIG. 5, listed as OCA): decreased LDL uptake
Compound: CC[C@H]1[C@@H](O)[C@@H]2[C@H](CC[C@]3(C)[C@@H]([C@H](C)CCC(=O)O)CC[C@@H]23)[C@@]2(C)CC[C@@H](O)C[C@@H]12 [obeticholic acid, 6α-ethyl-chenodeoxycholic acid]
LDL uptake by hepatocytes ([1]; FIG. 5): reduce the LDL uptake by hepatocytes in a dose dependent manner
safety on long term administration [5]: associated with pruritus, as well as with lipid abnormalities

pharmacokinetic profile [6]: favorable pharmacokinetic profile
diarrhea events that were mild ([9]; all diarrhea events of the study): 97.4%
increase of mean peak plasma concentration [3, 15]: 8%
increase of total exposure [3, 15]: 12%
Compound: CCc1ccc([C@@H]2O[C@H](CO)[C@@H](O)[C@H](O)[C@H]2O)cc1Cc1ccc2c(c1)OCCO2 [licogliflozin, (2S,3R,4R,5S,6R)-2-(3-((2,3-dihydrobenzo[b][1,4]dioxin-6-yl)methyl)-4-ethylphenyl)-6-(hydroxymethyl)tetrahydro-2H-pyran-3,4,5-triol]
safety and tolerability [6]: safe and tolerated
placebo-adjusted weight loss ([6]; over 2 weeks): up to 3%
weight loss ([7]; 150 mg daily dose, obese patients, after 12 week treatment): ~6%
safety and tolerability ([7]; 150 mg once daily, twelve weeks, normoglycemic and dysglycemic subjects): generally safe and well tolerated with diarrhea observed as a dose-limiting toxicity
incidence of diarrhea ([8]; 2.5 mg QD for 24 weeks): 18.4%
incidence of diarrhea ([8]; 10 mg QD for 24 weeks): 15.8%
incidence of diarrhea ([8]; 50 mg QD for 24 weeks): 55.3%
incidence of diarrhea ([8]; 150 mg QD for 24 weeks): 68.8%
placebo adjusted reduction from baseline levels of ALT ([9]; 30 mg daily oral, 12 weeks, p=NS): 19%
patients achieving at least 5% absolute reduction in liver fat ([9]; 30 mg): 43.5%
proportion of patients with at least a 30% relative reduction in liver fat content ([9]; 30 mg): 39.5%
patients reporting diarrhea (adverse event) ([9]; 30 mg): 40%
placebo adjusted reduction in HbA1c (absolute change) ([9]; 30 mg, 12 weeks, p=0.001): 0.81%
reduction in GGT ([9]; 30 mg, 12 weeks, p=0.014): 26%
reduction in AST ([9]; 30 mg, 12 weeks, p=0.043): 23%
absolute reduction in liver fat ([9]; 30 mg, 12 weeks, p=NS): 2.71%
relative reduction in liver fat content ([9]; 30 mg, 12 weeks, p=NS): 10%
ALT and liver fat, interim analysis ([9]; 150 mg QD monotherapy in NASH): promising reduction of ALT and liver fat
gastrointestinal events (mainly diarrhea), interim analysis ([9]; 150 mg QD monotherapy in NASH): significant incidence of gastrointestinal events
placebo adjusted reduction from baseline levels of ALT ([9]; 150 mg daily oral, 12 weeks, p=0.036): 27%
patients achieving at least 5% absolute reduction in liver fat ([9]; 150 mg): 63.3%
proportion of patients with at least a 30% relative reduction in liver fat content ([9]; 150 mg): 66.7%
patients reporting diarrhea (adverse event) ([9]; 150 mg): 76.5%
placebo adjusted reduction in HbA1c (absolute change) ([9]; 150 mg, 12 weeks, p=0.0001): 0.96%
reduction in GGT ([9]; 150 mg, 12 weeks, p=0.001): 32%
reduction in AST ([9]; 150 mg, 12 weeks, p=0.004): 30%
absolute reduction in liver fat ([9]; 150 mg, 12 weeks, p=0.01): 4.45%
relative reduction in liver fat content ([9]; 150 mg, 12 weeks, p=0.01): 22%
safety and tolerability ([9]; 12 weeks of treatment, NASH patients): safe and tolerable
placebo adjusted reduction in body weight ([9]; both doses (150 mg and 30 mg), 12 weeks, p=0.0001): ~4%
placebo-subtracted percentage change in body weight from baseline at Week 12 ([10]; 2.5 mg qd): −1.99%
placebo-subtracted percentage change in body weight from baseline at Week 12 ([10]; 10 mg qd): −3.00%
placebo-subtracted percentage change in body weight from baseline at Week 12 ([10]; 25 mg qd): −3.54%
placebo-subtracted percentage change in body weight from baseline at Week 12 ([10]; 50 mg qd): −3.91%
safety ([10]; 2.5, 10, 25 and 50 mg qd over 12 weeks): safe with no ketoacidosis and no new safety signals
body weight, dose dependence ([10]; 2.5, 10, 25 and 50 mg qd, 12 weeks): dose-dependent reduction in body weight
patients achieving reduction of ≥3% in body weight ([10]; 10, 25 and 50 mg qd dose groups (placebo 7.1%; p≤0.002 for all)): ≥ 50%
